Measurements reported in ChEMBL document CHEMBL5608216, “Discovery of a novel Xanthone derivative P24 for anti-AD via targeting sTGFBR3” (Eur J Med Chem, 2024).
Active and inactive are the calls of the source. The rule behind the calls is not given here.

How the values were obtained:
BV-2 [1] = assay: Antiinflammatory activity in LPS-induced mouse BV-2 cells assessed as inhibition of NO production incubated for 24 hrs by Griess reagent based analysis; type: functional, cell-based; details: BV-2, 24 h
[2] = Cytotoxicity against LPS-induced mouse BV-2 cells assessed as survival rate at 10 uM measured after 24 hrs by MTT assay relative to control; type: toxicity, cell-based; details: LPS-induced BV-2 cells, read-out: Survival
[3] = Permeability of compound measured after 18 hrs by UV spectrophotometer based PAMPA; type: ADME
BV-2 [4] = assay: Activation of TGF-beta pathway in APP/PS1/tau mouse brain extract-induced mouse BV-2 cells assessed as increase in phosphorylated SMAD2/3 protein level by immunoblot analysis; type: cell-based; details: filed as activator
[5] = target: T1, Transforming growth factor beta receptor type 3 (Mus musculus) (UniProt O88393); assay: Binding affinity to sTGFBR3 in APP/PS1/tau mouse brain extract-induced mouse BV-2 cells at 37 to 77 degreeC measured after 3 hrs by CETSA; type: cell-based
T1 sequence (whole entry): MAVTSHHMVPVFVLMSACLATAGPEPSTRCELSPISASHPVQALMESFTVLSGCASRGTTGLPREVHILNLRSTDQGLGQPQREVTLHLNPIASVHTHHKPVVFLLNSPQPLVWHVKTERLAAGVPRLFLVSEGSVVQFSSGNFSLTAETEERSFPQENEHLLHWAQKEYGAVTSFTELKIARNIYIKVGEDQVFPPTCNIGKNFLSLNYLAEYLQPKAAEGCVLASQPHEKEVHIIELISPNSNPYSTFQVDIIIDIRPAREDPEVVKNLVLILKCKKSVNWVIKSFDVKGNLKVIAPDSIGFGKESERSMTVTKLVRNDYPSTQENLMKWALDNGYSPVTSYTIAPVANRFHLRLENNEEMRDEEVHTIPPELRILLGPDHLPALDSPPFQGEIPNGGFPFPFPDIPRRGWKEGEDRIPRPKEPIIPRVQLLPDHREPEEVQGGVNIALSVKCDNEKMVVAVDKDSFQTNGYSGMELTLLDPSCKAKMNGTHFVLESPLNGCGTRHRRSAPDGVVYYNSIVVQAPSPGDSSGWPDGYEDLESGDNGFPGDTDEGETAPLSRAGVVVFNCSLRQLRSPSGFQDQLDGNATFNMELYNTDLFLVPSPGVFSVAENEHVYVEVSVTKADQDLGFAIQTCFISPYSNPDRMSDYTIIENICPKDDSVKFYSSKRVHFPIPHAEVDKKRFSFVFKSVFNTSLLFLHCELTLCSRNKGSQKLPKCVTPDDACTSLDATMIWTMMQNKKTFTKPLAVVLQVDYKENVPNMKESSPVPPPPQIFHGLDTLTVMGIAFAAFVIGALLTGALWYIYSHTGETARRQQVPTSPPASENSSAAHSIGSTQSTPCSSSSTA

BV-2 [6] = assay: Activation of TGF-beta pathway in APP/PS1/tau triple transgenic mouse brain extract-induced mouse BV-2 cells assessed as increase in phosphorylated SMAD2/3 protein expression by immunoblot analysis; type: cell-based; details: filed as activator, dose 1.25-10 µM
BV-2 [7] = assay: Inhibition of NF-kappaB activation in APP/PS1/tau triple transgenic mouse brain extract-induced mouse BV-2 cells assessed as inhibition of phosphorylated p65 protein expression by immunoblot analysis; type: cell-based; details: dose 1.25-10 µM
BV-2 [8] = assay: Antiinflammatory activity in APP/PS1/tau triple transgenic mouse brain extract-induced mouse BV-2 cells assessed as increase in IL-4 expression by immunoblot analysis; type: functional, cell-based; details: dose 1.25-10 µM
[9] = Toxicity in C57BL/6 mouse assessed as mortality at 2000 mg/kg, po measured after 3 to 24 hrs; type: organism-based; details: in vivo, time 3-24 hrs
BV-2 [10] = assay: Antiinflammatory activity in APP/PS1/tau triple transgenic mouse brain extract-induced mouse BV-2 cells assessed as reduction in TNFalpha expression by immunoblot analysis; type: functional, cell-based; details: dose 1.25-10 µM
[11] = MRT (0 to infinity) in Sprague-Dawley rat at 50 mg/kg, po administered as single dose and measured upto 48 hrs; type: ADME, organism-based; details: in vivo
BV-2 [12] = assay: Inhibition of NF-kappaB activation in APP/PS1/tau triple transgenic mouse brain extract-induced mouse BV-2 cells assessed as reduction in IKK complex formation by immunoblot analysis; type: cell-based; details: dose 1.25-10 µM
BV-2 [13] = assay: Antiinflammatory activity in APP/PS1/tau triple transgenic mouse brain extract-induced mouse BV-2 cells assessed as reduction in CD86 expression by immunoblot analysis; type: functional, cell-based; details: dose 1.25-10 µM
BV-2 [14] = assay: Antiinflammatory activity in APP/PS1/tau triple transgenic mouse brain extract-induced mouse BV-2 cells assessed as increase in IL-10 expression by immunoblot analysis; type: functional, cell-based; details: dose 1.25-10 µM
BV-2 [15] = assay: Enhancement of amyloid beta phagocytosis in APP/PS1/tau triple transgenic mouse brain extract-induced mouse BV-2 cells assessed as increase in fluorescence intensity pretreated for 1 hr followed by brain extract treatment and measured after 24 hrs by Thioflavin T staining based assay; type: functional, cell-based; details: dose 1.25-10 µM, time 25.0 hrs
[16] = AUC (0 to t) in Sprague-Dawley rat at 50 mg/kg, po administered as single dose and measured upto 48 hrs; type: ADME, organism-based; details: in vivo
BV-2 [17] = assay: Antiinflammatory activity in APP/PS1/tau triple transgenic mouse brain extract-induced mouse BV-2 cells assessed as increase in CD206 expression by immunoblot analysis; type: functional, cell-based; details: dose 1.25-10 µM
BV-2 [18] = assay: Inhibition of NF-kappaB activation in APP/PS1/tau triple transgenic mouse brain extract-induced mouse BV-2 cells assessed as inhibition of phosphorylated IKBalpha protein expression by immunoblot analysis; type: cell-based; details: dose 1.25-10 µM
[19] = Cmax in Sprague-Dawley rat at 50 mg/kg, po administered as single dose and measured upto 48 hrs; type: ADME, organism-based; details: in vivo
[20] = Elimination half life in Sprague-Dawley rat at 50 mg/kg, po administered as single dose and measured upto 48 hrs; type: ADME, organism-based; details: in vivo, read-out: beta t1/2 (converted)
BV-2 [21] = assay: Antiinflammatory activity in APP/PS1/tau triple transgenic mouse brain extract-induced mouse BV-2 cells assessed as reduction in IL-1beta expression by immunoblot analysis; type: functional, cell-based; details: dose 1.25-10 µM
[22] = Tmax in Sprague-Dawley rat at 50 mg/kg, po administered as single dose and measured upto 48 hrs; type: ADME, organism-based; details: in vivo

Compound	IC50 (BV-2 [1]) [µM]	viability at 24 h, 10 µM [2] [%]	other results
CN1CCN(c2ccc(NC(=O)COc3ccc4c(=O)c5ccccc5oc4c3)nc2)CC1	1.19	86	
Cc1ccc(CCNC(=O)COc2ccc3c(=O)c4ccccc4oc3c2)cc1	3.42	47.9	
O=C(COc1ccc2c(=O)c3ccccc3oc2c1)Nc1cccnc1	1.92	91.9	
O=C(COc1ccc2c(=O)c3ccccc3oc2c1)N(Cc1ccccc1)Cc1ccccc1	6.38	99.7	
C[C@]12CCC(=O)C=C1CC[C@@H]1[C@@H]2CC[C@]2(C)C(=O)CC[C@@H]12 [ANDROSTENEDIONE]			permeability [3]: 87.28%
O=C(COc1ccc2c(=O)c3ccccc3oc2c1)Nc1ccccn1	> 30	87.4	
O=C(COc1ccc2c(=O)c3ccccc3oc2c1)NCc1cccc(F)c1	> 30	97.2	
O=C(COc1ccc2c(=O)c3ccccc3oc2c1)NCc1ccncc1	6.38	102	
O=C(COc1ccc2c(=O)c3ccccc3oc2c1)NCCc1ccc(Cl)c(Cl)c1	3.28	41.1	
O=C(COc1ccc2c(=O)c3ccccc3oc2c1)NCCc1ccccc1	2.57	96.4	
O=C(COc1ccc2c(=O)c3ccccc3oc2c1)NCc1cccnc1	16	75.4	
O=C(COc1ccc2c(=O)c3ccccc3oc2c1)NCCc1ccc(Cl)cc1	1.53	38.5	
CN1CCN(C(=O)COc2ccc3c(=O)c4ccccc4oc3c2)CC1	2.25	91.6	
O=C(COc1ccc2c(=O)c3ccccc3oc2c1)N1CCOCC1	2.49	108	Activity (BV-2 [4]): Active; Activity ([5]; filed as antagonist): Active
O=C(COc1ccc2c(=O)c3ccccc3oc2c1)NC1CCOCC1	3.9	80.6	
O=c1c2ccccc2oc2ccccc12 [XANTHONE]	21.2	95.4	
O=C(COc1ccc2c(=O)c3ccccc3oc2c1)NCc1ccccc1F	1.72	84.6	
CCn1cc(C(=O)O)c(=O)c2cc(F)c(N3CCNCC3)nc21 [ENOXACIN]			permeability [3]: 43.26%
COc1ccc(CCNC(=O)COc2ccc3c(=O)c4ccccc4oc3c2)cc1	0.86	54.4	
O=C(COc1ccc2c(=O)c3ccccc3oc2c1)NCc1ccccn1	2.43	69.1	
O=C(COc1ccc2c(=O)c3ccccc3oc2c1)NCc1ccccc1	2.41	79	
O=C(COc1ccc2c(=O)c3ccccc3oc2c1)N1CCNCC1	2.15	101	Activity (BV-2 [4]): Active; Activity [5]: inactive
O=C(COc1ccc2c(=O)c3ccccc3oc2c1)NCc1ccc(Cl)cc1	1.23	40.4	
O=C(COc1ccc2c(=O)c3ccccc3oc2c1)NCC1CCOCC1	0.52	105	Activity (BV-2 [6]): Dose-Dependent Effect; inhibition (BV-2 [7]): Dose-Dependent Effect; Activity (BV-2 [8]): Dose-Dependent Effect; Activity [9]: Non-Toxic; Activity (BV-2 [10]): Dose-Dependent Effect; MRT inf [11]: 14.5 h; Activity (BV-2 [4]): Active; inhibition (BV-2 [12]): Dose-Dependent Effect; Activity (BV-2 [13]): Dose-Dependent Effect; Activity (BV-2 [14]): Dose-Dependent Effect; Activity (BV-2 [15]): Dose-Dependent Effect; AUCt [16]: 4.738426 µg·h/mL; Activity (BV-2 [17]): Dose-Dependent Effect; inhibition (BV-2 [18]): Dose-Dependent Effect; Activity ([5]; filed as antagonist): Active; permeability [3]: 79.33%; Cmax [19]: 0.304 µg/mL; half-life [20]: 10.3 h; Activity (BV-2 [21]): Dose-Dependent Effect; Tmax [22]: 12 h
O=C(COc1ccc2c(=O)c3ccccc3oc2c1)Nc1ccncc1	2.79	108	
O=C(COc1ccc2c(=O)c3ccccc3oc2c1)NCc1ccc(F)cc1	2.02	82.8	
O=C(COc1ccc2c(=O)c3ccccc3oc2c1)NCc1ccc(Cl)c(Cl)c1	2.89	54.6	
O=C(COc1ccc2c(=O)c3ccccc3oc2c1)NC[C@@H](O)c1ccccc1	12.5	100	
CCC(NC(=O)COc1ccc2c(=O)c3ccccc3oc2c1)c1ccccn1 (stereo not given)	5.43	98.5	
